From patent US12606836B2, “Process for extracellular secretion of Brazzein” (MAGELLAN LIFE SCIENCES LTD., priority 2016, dated 2026)
Like-named read-outs stand apart in the source and are kept apart here.

Columns and labels:
taste panel = experiment: Sensory analysis of purified Brazzein (taste panel, sweetness threshold versus sucrose); format: in vivo, humans; conditions: for Experimental Threshold: first sample sensed as sweet, 200 microliter applied to anterior tongue, 30 tasters; for Relative Sweetness (by weight): relative to sucrose, 1% (w/v) sucrose reference
Description: A portion of the purified Brazzein (A28D) was lyophilized and re-dissolved in deionized water to 1.0 mg/mL. From this, Brazzein (A28D) solutions with following concentrations were made: 0.5, 1.0, 2.0, 3.0, 4.0, 5.0, 6.0, 7.0, 8.0, 9.0, and 10.0 μg/mL. A 1% (w/v) sucrose solution, the lowest concentration of sucrose detectable by humans, was used as a reference. The taste panel consisted of fifteen females and fifteen males with normal health and normal sense of taste. Two-hundred-microliter samples were applied to the anterior region of the tongue. After each test, the mouth was rinsed with tap water. The tasters sampled from the lower concentration samples to higher. Each taster chose the first sample that could be sensed for sweetness. Sweetness potencies were reported relative to sucrose on a weight basis.

[1] = cited from earlier work
[2] = Thermal stability of secreted Brazzein (heating of cell free supernatant, SDS-PAGE); format: physicochemical; conditions: cell free supernatant heated at 80° C. for 60 mins, centrifuged at 17,500 g, FIG. 11
Description: Protein expression was analyzed by SDS-PAGE on 15% Tris-Glycine gels. To analyze protein in the cell culture medium, 17 μL of cell free supernatant (corresponding to 0.07% of total culture volume) was mixed with 17 μL of 2× reducing sample buffer, heated for 5 mins in a PCR machine, briefly spun and loaded into the gel. The gel was run at a constant voltage of 125V till the dye front exited the gel. The gels were washed in MILLI-Q® water for 1 hour and stained with Coomassie Stain. To analyze protein in whole cells, frozen cell pellets were thawed, re-suspended in 50 μL of MILLI-Q*water. 17 μL of resuspended cells were mixed with 17 μL of 2× Reducing Sample Buffer, heated for 5 mins in a PCR machine, briefly spun and loaded into the gel. The gel was run at constant voltage of 125V till the dye front exited it. The gels were washed in MILLI-Q*water for 1 hour and stained with Coomassie Stain.
[…] The supernatant was analyzed by SDS-PAGE. Protein quantitation was done using BCA assay kit. As a result of heating, most of the endogenous E. coli proteins present in the cell free supernatant precipitated, leaving >90% pure Brazzein in solution.

Molecule: OC[C@H]1O[C@@](CO)(O[C@H]2O[C@H](CO)[C@@H](O)[C@H](O)[C@H]2O)[C@@H](O)[C@@H]1O [Sucrose, reference compound]
- Experimental Threshold (taste panel): 1 % [g/100 mL]
- Relative Sweetness (by weight) (taste panel): 1

Molecule: Brazzein: high-potency thermostable sweet protein, originally isolated from the fruit of Pentadiplandra brazzeana Baillon (DKCKKVYENYPVSKCQLANQCNYDCKLDKHARSGECFYDEKRNLQCICDYCEY; Synthetic: Amino Acid Sequence of pelB-Brazzein(A28D))
- sweeter than sucrose ([1]; in comparison to 2% sucrose aqueous solution): 2,500 times
- sweeter than sucrose ([1]; in comparison to 10% sucrose): 500 times
- thermal stability: Brazzein in soluble supernatant after heating [2]: Presence of Brazzein in lanes 1 and 2

B1: Brazzein(A28D): wild-type TypeIII Brazzein; residue 50 of pelB-Brazzein mutated from Alanine to Aspartate; mature protein from Seq Id No. 8 (protein)
chain: MKYLLPTAAAGLLLLAAQPAMADKCKKVYENYPVSKCQLANQCNYDCKLDKHARSGECFYDEKRNLQCICDYCEY
modifications: misc_feature 1..234 Synthetic: nucleotide Sequence encoding pelB conjugated to Brazzein(A28D)
- Experimental Threshold (taste panel): 0.0006 % [g/100 mL]
- sweeter than sucrose on a weight basis (taste panel; relative to 1% (w/v) sucrose reference): 1660 times
- Relative Sweetness (by weight) (taste panel): 1660
